From ChEMBL document CHEMBL5712075, “The histone methyltransferase EZH2 as a novel prosurvival factor in clinically aggressive chronic lymphocytic leukemia” (Oncotarget, 2016)

What was measured:
[1] = target: Histone-lysine N-methyltransferase EZH2 (Homo sapiens) (UniProt Q15910); assay: Inhibition of EZH2 in human CD19+ B cells assessed as decrease in H3K27me3 levels measured as percentage abundance at 4 uM after 10 days by Western blot analysis relative to control; type: cell-based; parameters: scale not given: the % may be the effect or the level left; settings: CD19 positive B cell, time 10.0 day
[2] = target: Histone-lysine N-methyltransferase EZH2 (Homo sapiens) (UniProt Q15910); assay: Inhibition of EZH2 in human CD19+ B cells assessed as decrease in H3K27me3 levels measured as percentage abundance at 4 uM by Western blot analysis relative to control; type: cell-based; parameters: scale not given: the % may be the effect or the level left; settings: CD19 positive B cell
[3] = target: Histone-lysine N-methyltransferase EZH2 (Homo sapiens) (UniProt Q15910); assay: Inhibition of EZH2 in human CD19+ B cells assessed as decrease in cell viability at 4 uM after 5 to 13 days by annexin-V/PI staining based flow cytometry; settings: CD19 positive B cell, time 5-13 day, TDE = time-dependent effect
[4] = target: Histone-lysine N-methyltransferase EZH2 (Homo sapiens) (UniProt Q15910); assay: Inhibition of EZH2 in human CD19+ B cells assessed as decrease in H3K27me3 levels measured as percentage abundance at 4 uM after 8 days by Western blot analysis relative to control; type: cell-based; parameters: scale not given: the % may be the effect or the level left; settings: CD19 positive B cell, time 8.0 day
[5] = target: Histone-lysine N-methyltransferase EZH2 (Homo sapiens) (UniProt Q15910); assay: Inhibition of EZH2 in human CD19+ B cells assessed as decrease in H3K27me3 levels measured as percentage abundance at 4 uM after 2 days by Western blot analysis relative to control; type: cell-based; parameters: scale not given: the % may be the effect or the level left; settings: CD19 positive B cell, time 2.0 day
[6] = target: Histone-lysine N-methyltransferase EZH2 (Homo sapiens) (UniProt Q15910); assay: Inhibition of EZH2 in human CD19+ B cells assessed as decrease in H3K27me3 levels measured as percentage abundance at 4 uM after 6 days by Western blot analysis relative to control; type: cell-based; parameters: scale not given: the % may be the effect or the level left; settings: CD19 positive B cell, time 6.0 day
[7] = target: Histone-lysine N-methyltransferase EZH2 (Homo sapiens) (UniProt Q15910); assay: Inhibition of EZH2 in human CD19+ B cells assessed as decrease in H3K27me3 levels measured as percentage abundance at 4 uM after 4 days by Western blot analysis relative to control; type: cell-based; parameters: scale not given: the % may be the effect or the level left; settings: CD19 positive B cell, time 4.0 day

Chain of Histone-lysine N-methyltransferase EZH2 (Homo sapiens) (Q15910 whole entry, looked up): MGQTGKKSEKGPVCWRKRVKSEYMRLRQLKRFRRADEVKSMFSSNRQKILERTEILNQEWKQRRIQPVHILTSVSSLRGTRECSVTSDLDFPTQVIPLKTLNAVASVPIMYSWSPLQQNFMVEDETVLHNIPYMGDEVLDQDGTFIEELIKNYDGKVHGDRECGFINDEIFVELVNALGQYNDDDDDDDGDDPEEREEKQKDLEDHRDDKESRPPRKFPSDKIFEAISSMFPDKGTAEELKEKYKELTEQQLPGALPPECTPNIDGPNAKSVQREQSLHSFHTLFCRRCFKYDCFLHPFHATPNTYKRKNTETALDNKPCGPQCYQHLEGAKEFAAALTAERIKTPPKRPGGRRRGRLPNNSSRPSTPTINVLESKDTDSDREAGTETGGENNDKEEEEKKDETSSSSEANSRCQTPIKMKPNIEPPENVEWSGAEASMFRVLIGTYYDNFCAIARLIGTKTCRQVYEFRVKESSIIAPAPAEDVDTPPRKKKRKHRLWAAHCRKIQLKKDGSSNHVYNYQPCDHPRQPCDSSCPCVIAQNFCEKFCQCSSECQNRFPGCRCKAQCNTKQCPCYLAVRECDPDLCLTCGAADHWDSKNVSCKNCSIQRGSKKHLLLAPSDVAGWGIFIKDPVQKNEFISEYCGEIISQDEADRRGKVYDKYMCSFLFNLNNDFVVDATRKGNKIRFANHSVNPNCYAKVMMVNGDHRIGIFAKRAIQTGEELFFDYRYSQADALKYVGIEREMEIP

Activity [1]: 65.2%
Activity [2]: 66%
Activity [4]: 65.1%
Activity [5]: 99.6%
Activity [6]: 99.5%
Activity [7]: 100%
SMILES: CCCc1cc(C)[nH]c(=O)c1CNC(=O)c1cc(-c2ccnc(N3CCN(C)CC3)c2)cc2c1cnn2C(C)C
inhibition [3]: Tde
